#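 Step 1: Grow cells in 96-well plates. Step 2: Expose to compound for 48 hours at 5 concentrations. Step 3: Interpolate endpoints linearly; if unreached, use highest concentration. TGI denotes the concentration required for complete inhibition of growth.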
# Columns and labels:
# Test in all cases: growth of human tumour cells (NCI), 48 h
# MCF7 breast = system: MCF7 breast
# SF-539 CNS = system: SF-539 CNS
# SR leukemia = system: SR leukemia
# RXF 393 renal = system: RXF 393 renal
# UO-31 renal = system: UO-31 renal
# MDA-N = system: MDA-N
# OVCAR-3 ovarian = system: OVCAR-3 ovarian
# MDA-MB-231 breast = system: MDA-MB-231 breast
# K-562 leukemia = system: K-562 leukemia
# COLO 205 colon = system: COLO 205 colon
# SK-OV-3 ovarian = system: SK-OV-3 ovarian
# IGROV1 ovarian = system: IGROV1 ovarian
# NCI-H226 lung = system: NCI-H226 lung
# MDA-MB-435 = system: MDA-MB-435
# T-47D breast = system: T-47D breast
# BT-549 breast = system: BT-549 breast
# HCT-15 colon = system: HCT-15 colon
# OVCAR-8 ovarian = system: OVCAR-8 ovarian
# NCI/ADR-RES ovarian = system: NCI/ADR-RES ovarian
# SNB-75 CNS = system: SNB-75 CNS
# A498 renal = system: A498 renal
# HS 578T breast = system: HS 578T breast
# TK-10 renal = system: TK-10 renal
# HT29 colon = system: HT29 colon
# A549 NSCLC = system: A549 NSCLC
# EKVX NSCLC = system: EKVX NSCLC
# UACC-257 melanoma = system: UACC-257 melanoma
# PC-3 prostate = system: PC-3 prostate
# NCI-H23 lung = system: NCI-H23 lung
# HL-60(TB) leukemia = system: HL-60(TB) leukemia
# U251 CNS = system: U251 CNS
# SF-295 CNS = system: SF-295 CNS
# NCI-H460 lung = system: NCI-H460 lung
# M14 melanoma = system: M14 melanoma
# OVCAR-5 ovarian = system: OVCAR-5 ovarian
# SN12C renal = system: SN12C renal
# MALME-3M melanoma = system: MALME-3M melanoma
# SK-MEL-2 melanoma = system: SK-MEL-2 melanoma
# HCC-2998 colon = system: HCC-2998 colon
# HCT-116 colon = system: HCT-116 colon
# CCRF-CEM leukemia = system: CCRF-CEM leukemia
# KM12 colon = system: KM12 colon
# DU-145 prostate = system: DU-145 prostate
# RPMI-8226 leukemia = system: RPMI-8226 leukemia
# UACC-62 melanoma = system: UACC-62 melanoma
# OVCAR-4 ovarian = system: OVCAR-4 ovarian
# SK-MEL-5 melanoma = system: SK-MEL-5 melanoma
# CAKI-1 renal = system: CAKI-1 renal
# SF-268 CNS = system: SF-268 CNS
# SNB-19 CNS = system: SNB-19 CNS
# MOLT-4 leukemia = system: MOLT-4 leukemia
# NCI-H522 lung = system: NCI-H522 lung
# 786-0 renal = system: 786-0 renal
# HOP-62 NSCLC = system: HOP-62 NSCLC
# ACHN renal = system: ACHN renal
# SK-MEL-28 melanoma = system: SK-MEL-28 melanoma
# LOX IMVI melanoma = system: LOX IMVI melanoma
# HOP-92 NSCLC = system: HOP-92 NSCLC
# SW-620 colon = system: SW-620 colon
smiles,measurement,setting,value
COc1ccc(N=N/C(=N/NC(=O)c2ccccc2)c2ccc(N(CCC#N)CCC#N)cc2C)cc1,TGI,MCF7 breast,> 100 µM
same,TGI,SF-539 CNS,70 µM
same,TGI,SR leukemia,> 100 µM
same,TGI,RXF 393 renal,> 100 µM
same,TGI,UO-31 renal,> 100 µM
same,TGI,MDA-N,44.4 µM
same,TGI,OVCAR-3 ovarian,> 100 µM
same,TGI,MDA-MB-231 breast,> 100 µM
same,TGI,K-562 leukemia,> 100 µM
same,TGI,COLO 205 colon,> 100 µM
same,TGI,SK-OV-3 ovarian,> 100 µM
same,TGI,IGROV1 ovarian,> 100 µM
same,TGI,NCI-H226 lung,> 100 µM
same,TGI,MDA-MB-435,> 100 µM
same,TGI,T-47D breast,> 100 µM
same,TGI,BT-549 breast,> 100 µM
same,TGI,HCT-15 colon,> 100 µM
same,TGI,OVCAR-8 ovarian,> 100 µM
same,TGI,NCI/ADR-RES ovarian,> 100 µM
same,TGI,SNB-75 CNS,> 100 µM
same,TGI,A498 renal,> 100 µM
same,TGI,HS 578T breast,75.2 µM
same,TGI,TK-10 renal,> 100 µM
same,TGI,HT29 colon,55 µM
same,TGI,A549 NSCLC,> 100 µM
same,TGI,EKVX NSCLC,> 100 µM
same,TGI,UACC-257 melanoma,> 100 µM
same,TGI,PC-3 prostate,> 100 µM
same,TGI,NCI-H23 lung,> 100 µM
same,TGI,HL-60(TB) leukemia,> 100 µM
same,TGI,U251 CNS,> 100 µM
same,TGI,SF-295 CNS,> 100 µM
same,TGI,NCI-H460 lung,> 100 µM
same,TGI,M14 melanoma,> 100 µM
same,TGI,OVCAR-5 ovarian,> 100 µM
same,TGI,SN12C renal,> 100 µM
same,TGI,MALME-3M melanoma,> 100 µM
same,TGI,SK-MEL-2 melanoma,> 100 µM
same,TGI,HCC-2998 colon,> 100 µM
same,TGI,HCT-116 colon,> 100 µM
same,TGI,CCRF-CEM leukemia,> 100 µM
same,TGI,KM12 colon,> 100 µM
same,TGI,DU-145 prostate,> 100 µM
same,TGI,RPMI-8226 leukemia,> 100 µM
same,TGI,UACC-62 melanoma,> 100 µM
same,TGI,OVCAR-4 ovarian,> 100 µM
same,TGI,SK-MEL-5 melanoma,> 100 µM
same,TGI,CAKI-1 renal,> 100 µM
same,TGI,SF-268 CNS,> 100 µM
same,TGI,SNB-19 CNS,> 100 µM
same,TGI,MOLT-4 leukemia,> 100 µM
same,TGI,NCI-H522 lung,36.1 µM
same,TGI,786-0 renal,> 100 µM
same,TGI,HOP-62 NSCLC,> 100 µM
same,TGI,ACHN renal,> 100 µM
CCCCCCCCCCCCCCCCCCNc1ccn(C2OC(COP(=O)(O)OCC3OC(n4cc(C)c(=O)[nH]c4=O)CC3N=[N+]=[N-])C(O)C2O)c(=O)n1 (stereo unspecified),TGI,MCF7 breast,> 100 µM
same,TGI,SK-MEL-28 melanoma,36.8 µM
same,TGI,SF-539 CNS,33.8 µM
same,TGI,SR leukemia,80 µM
same,TGI,UO-31 renal,58.8 µM
same,TGI,MDA-N,> 100 µM
same,TGI,OVCAR-3 ovarian,> 100 µM
same,TGI,MDA-MB-231 breast,56.7 µM
same,TGI,K-562 leukemia,50.3 µM
same,TGI,COLO 205 colon,30.7 µM
same,TGI,SK-OV-3 ovarian,40.3 µM
same,TGI,IGROV1 ovarian,42.5 µM
same,TGI,NCI-H226 lung,43.7 µM
same,TGI,MDA-MB-435,63.2 µM
same,TGI,LOX IMVI melanoma,37.8 µM
same,TGI,T-47D breast,> 100 µM
same,TGI,BT-549 breast,49.2 µM
same,TGI,HCT-15 colon,36.1 µM
same,TGI,OVCAR-8 ovarian,48.8 µM
same,TGI,NCI/ADR-RES ovarian,50 µM
same,TGI,SNB-75 CNS,58.5 µM
same,TGI,HS 578T breast,49.8 µM
same,TGI,TK-10 renal,69.5 µM
same,TGI,HT29 colon,35.1 µM
same,TGI,A549 NSCLC,> 100 µM
same,TGI,EKVX NSCLC,48.5 µM
same,TGI,UACC-257 melanoma,76.3 µM
same,TGI,PC-3 prostate,22.5 µM
same,TGI,NCI-H23 lung,36 µM
same,TGI,U251 CNS,36.2 µM
same,TGI,SF-295 CNS,32.6 µM
same,TGI,NCI-H460 lung,36.6 µM
same,TGI,M14 melanoma,36.1 µM
same,TGI,OVCAR-5 ovarian,34.2 µM
same,TGI,SN12C renal,48.1 µM
same,TGI,MALME-3M melanoma,32.1 µM
same,TGI,SK-MEL-2 melanoma,39.8 µM
same,TGI,HOP-92 NSCLC,> 100 µM
same,TGI,HCC-2998 colon,29.9 µM
same,TGI,HCT-116 colon,> 100 µM
same,TGI,CCRF-CEM leukemia,48.7 µM
same,TGI,SW-620 colon,58.8 µM
same,TGI,KM12 colon,35 µM
same,TGI,DU-145 prostate,> 100 µM
same,TGI,RPMI-8226 leukemia,32.7 µM
same,TGI,UACC-62 melanoma,36.4 µM
same,TGI,OVCAR-4 ovarian,83.9 µM
same,TGI,SK-MEL-5 melanoma,57.2 µM
same,TGI,CAKI-1 renal,58.6 µM
same,TGI,SF-268 CNS,43.6 µM
same,TGI,SNB-19 CNS,59.7 µM
same,TGI,MOLT-4 leukemia,44.4 µM
same,TGI,NCI-H522 lung,30.7 µM
same,TGI,786-0 renal,> 100 µM
same,TGI,HOP-62 NSCLC,45 µM
same,TGI,ACHN renal,> 100 µM

# Source: PubChem BioAssay (NCI)
